We go through 3 compounds from patent publication US10669267B2, “Substituted N-[2-(4-phenoxypiperidin-1-yl)-2-(1,3-thiazol-5-yl)ethyl]benzamide and N-[2-(4-benzyloxypiperidin-1-yl)-2-(1,3-thiazol-5-yl)ethyl]benzamide derivatives P2X7 receptor antagonists” (Axxam S.P.A., priority 2016, dated 2020).

The target of one series is human P2X7 channel (Homo sapiens (Human), UniProt Q99572). Kind of series: human P2X7 channel assay by automated patch-clamp (QPatch16X), BzATP-evoked current. In kind it is cell-based. To be noted: HEK-293 cells expressing P2X7, whole-cell voltage clamp, 100 microM BzATP, holding -80 mV; read-out: hP2X7 (IC50; nM). Here is the method: In order to directly monitor the block of P2X7 channel, an electrophysiological assay was developed and implemented on the QPatch16X automated electrophysiology instrument.
HEK-293 cells expressing the P2X7 channels were cultured in modified EMEM.
72 hours before experiment, 5 million cells were seeded onto T225 flasks. Just before the experiment cells were washed twice, detached from the flask with trypsin-EDTA, re-suspended in the suspension solution and placed on the QPatch 16x.
The compounds (20 mM in a 100% DMSO) stored at −20° C. were prepared the day of the experiment (a first dilution 1:20 in 100% DMSO to prepare a 1 mM stock solution, then a 1 microM solution in external solution+a serial dilution 1:10).
The standard whole-cell voltage clamp experiments were performed at room temperature. For these experiments the multihole technology was used and the data were sampled at 2 KHz.
After establishment of the seal and the passage in the whole cell configuration, the cells were held at −80 mV. The P2XR7 current was evoked by applying 100 microM of BzATP alone (4 times) and then in the presence increasing concentrations of the compound under investigation (1, 10, 100 and 1000 nM).
The pre-incubation periods 5 to 8 contain increasing concentrations of the compound of interest (1, 10, 100 and 1000 nM), as illustrated in FIGURE.
The maximal inward current evoked by BzATP in absence or presence of increasing concentrations of the compounds under investigation was measured and normalized.
Y: normalized response, 100% down to 0%, decreasing as X increases.
LogIC50: same log units as X
HillSlope: slope factor or HS, unitless

Another series concerns the target rat P2X7R (Rattus norvegicus (Rat), UniProt Q64663). The series can be described thus: rat P2X7 Ca2+ influx, Screen Quest Fluo-8 No Wash Calcium Assay Kit (FLIPR TETRA). It counts as cell-based. Particulars: Table 4; HEK-293 cells stably transfected with rat P2X7R, BzATP stimulation; read-out: rP2X7 (IC50; nM). Here is the method:
Ca^2+ influx was measured in HEK-293 cells stably transfected with the receptor using Screen Quest™ Fluo-8 No Wash Calcium Assay Kit (AAt Bioquest®). Briefly, once inside the cells, the lipophilic blocking groups of Fluo-8 are cleaved by non-specific cell esterases, resulting in a negatively-charged fluorescent-dye that stays inside cells. Its fluorescence increases upon binding to calcium. When HEK-293/P2X7 cells were stimulated with BzATP, Ca^2+ entered the cells and the fluorescence of Fluo-8 NW increaseed.
To routinely test the compounds, HEK-293 cells stably transfected with rat P2X7R were seeded overnight in growth medium at 10000, 15000 or 20000 cells/well in 384-well plate, according to the level of response after thawing. 24 hours later, the medium was removed and the cells were pre-loaded at RT for 1 hour with 20 μL/w of Fluo-8 NW prepared in Tyrode 0.3 mM Ca^2+/Mg^2+-free.
Compounds were tested at […] according to the following method: • first injection at […] of 10 μL of 3× test compound (in Tyrode's buffer 0.3 mM Ca^2+/Mg^2+-free+DMSO 0.5% final concentration) • 5′ incubation • second injection at […] of 15 µL of 3× BzATP at ˜ECK) (in Tyrode's buffer 0.3 mM Ca^2+/Mg^2+-free+BSA 0.0003% final concentration) • Fluorescence recording for 3′
Between one plate and the following, tips were extensively washed with water, then with 100% DMSO and finally with water to avoid carry-over inside the tips.
The effect of the test compounds was measured as percent inhibition vs a reference antagonist and IC50 values were calculated accordingly.

Series [1] is described as follows: metabolic stability using Human liver Microsomes. In kind it is in vitro ADME. Also on record: unit not given here. Particulars: 1 μM test compound, 1 mg/mL protein, pH 7.4, 0-60 min. The method, then: In vitro evaluation of test compounds for metabolic stability using Human liver
Test System Human (Mouse) Liver Microsomes
Test compound concentration: 1μM
Time Points: 0, 5, 10, 30 and 60 minutes
Final Protein concentration: 1 mg/mL
Number of Replicates: Two
Potassium Phosphate Buffer pH 7.4 100 mM
End Point: % Remaining of Test compound, Half life, Clint
Preparation and Dilution of Test Compound:
10 mM stock solution of test compound were prepared in DMSO and dilute with water: acetonitrile (1:1) to a concentration of 1 mM. Working concentration of 100 μM were prepared by further dilution with water: acetonitrile (1: 1).
Preparation of Potassium Phosphate buffer pH 7.4:
100 mL of Milli Q water will be added to K2HPO4 (1.398 g) and KH2PO4 (0.27 g) to get final pH 7.4.
Preincubation mixture: 2.5 μL Test Cpd.+75 μL Liver microsomes@3.33 mg/mL+85 μL of 100 mM potassium phosphate buffer (Preincubate for 10 min @37° C.)
60 min w/o cofactor: 32.5 μL of Preincubation mixture+17.5 μL of 100 mM potassium phosphate buffer (Incubate for 60 min@37° C.)
0 min sample: 16.25 μL of Preincubation mixture+200 μL of acetonitrile containing internal standard+8.75 μL of cofactor Incubation mixture 62 μL of cofactor (2.5 mM)+Remaining incubation mixture (Incubated for 60 min@37° C.).
Sample preparation: 25 μL incubation mixture+200 μL of acetonitrile containing internal standard+Vortex 5 min@1200 rpm+Centrifuge 10 min@4000 rpm. Dilute supernatant 2 fold with water and injected on LC-MS/MS.
Bioanalysis: LC-MS/MS method LC generic gradient conditions will be used and the details will be provided in the report.

Sequence of human P2X7 channel (Q99572 whole entry): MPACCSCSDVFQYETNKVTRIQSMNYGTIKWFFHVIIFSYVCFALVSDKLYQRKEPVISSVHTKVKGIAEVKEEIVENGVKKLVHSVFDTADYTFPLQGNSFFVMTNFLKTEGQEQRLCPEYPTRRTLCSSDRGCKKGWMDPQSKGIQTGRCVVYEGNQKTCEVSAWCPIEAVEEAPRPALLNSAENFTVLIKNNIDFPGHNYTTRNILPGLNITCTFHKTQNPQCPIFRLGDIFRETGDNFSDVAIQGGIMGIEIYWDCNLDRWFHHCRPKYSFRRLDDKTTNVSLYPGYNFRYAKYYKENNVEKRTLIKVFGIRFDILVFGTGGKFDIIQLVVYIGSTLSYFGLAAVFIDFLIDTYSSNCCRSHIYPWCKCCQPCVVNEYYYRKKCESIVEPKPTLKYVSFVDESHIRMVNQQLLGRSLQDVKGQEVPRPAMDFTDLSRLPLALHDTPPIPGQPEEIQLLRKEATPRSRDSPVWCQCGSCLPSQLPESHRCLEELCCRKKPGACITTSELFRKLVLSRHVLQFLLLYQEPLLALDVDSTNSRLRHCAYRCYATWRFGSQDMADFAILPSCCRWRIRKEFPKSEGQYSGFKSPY
Sequence of rat P2X7R (Q64663 whole entry): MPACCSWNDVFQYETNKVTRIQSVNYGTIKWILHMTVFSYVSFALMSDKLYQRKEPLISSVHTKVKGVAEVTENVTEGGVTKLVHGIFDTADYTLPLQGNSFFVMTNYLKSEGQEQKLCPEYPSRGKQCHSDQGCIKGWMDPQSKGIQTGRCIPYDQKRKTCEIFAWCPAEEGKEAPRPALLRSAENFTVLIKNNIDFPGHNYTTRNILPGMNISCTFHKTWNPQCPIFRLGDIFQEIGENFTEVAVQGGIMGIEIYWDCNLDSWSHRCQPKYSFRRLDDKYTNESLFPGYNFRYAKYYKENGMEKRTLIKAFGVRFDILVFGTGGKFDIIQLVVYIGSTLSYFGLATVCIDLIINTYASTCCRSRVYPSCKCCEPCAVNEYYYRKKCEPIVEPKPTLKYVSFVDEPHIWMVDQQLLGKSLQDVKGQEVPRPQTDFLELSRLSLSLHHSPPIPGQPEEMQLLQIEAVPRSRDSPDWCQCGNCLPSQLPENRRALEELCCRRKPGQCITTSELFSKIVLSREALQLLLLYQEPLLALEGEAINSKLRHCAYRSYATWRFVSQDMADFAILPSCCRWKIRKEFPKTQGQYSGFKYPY

With `Cc1ncsc1C(CNC(=O)c1c(F)cccc1Cl)N1CCC(Oc2cc(F)cc(F)c2)CC1` (stereo not drawn) [Compound 11, 2-chloro-N-{2-[4-(3,5-difluorophenoxy)piperidin-1-yl]-2-(4-methyl-1,3-thiazol-5-yl)ethyl}-6-fluorobenzamide], the IC50 came out at 30.6 nM at human P2X7 channel and 594 nM on rat P2X7R. Moreover, the “Human Liver Microsomal Clearance (CLi; μg/min/mg protein)” value (from here on “Human Liver Microsomal Clearance”) in series [1] stood at 59.41.

For the compound `Cc1ncsc1C(CNC(=O)c1cccc2ncccc12)N1CCC(Oc2ccc(F)cc2)CC1` (stereo not drawn) [Compound 19, N-{2-[4-(4-fluorophenoxy)piperidin-1-yl]-2-(4-methyl-1,3-thiazol-5-yl)ethyl}quinoline-5-carboxamide], the IC50 worked out at 23.9 nM on human P2X7 channel and 582 nM at rat P2X7R. Besides, the “Human Liver Microsomal Clearance” value in series [1] is listed as 71.12.

On to `Cc1ncsc1C(CNC(=O)c1cccc2ncccc12)N1CCC(Oc2ccccc2F)CC1` (stereo not drawn) [Compound 22, N-{2-[4-(2-fluorophenoxy)piperidin-1-yl]-2-(4-methyl-1,3-thiazol-5-yl)ethyl}quinoline-5-carboxamide], for which the 50% inhibitory concentration (IC50) at human P2X7 channel was 30.2 nM; on rat P2X7R, 355 nM. Further, the “Human Liver Microsomal Clearance” value in series [1] came out at 93.44.
